Consider one compound from paper PMC8001788, “Decursin Alleviates Mechanical Allodynia in a Paclitaxel-Induced Neuropathic Pain Mouse Model” (Cells, 2021).

Broadly, the IC50 is the concentration that gives 50% inhibition.

The target of the test is transient receptor potential vanilloid 1 (TRPV1) (Homo sapiens, UniProt Q8NER1). The test is described as follows: Fura-2 calcium imaging of capsaicin-induced Ca2+ in human TRPV1 stable HEK293 cells. It counts as cell-based.
transient receptor potential vanilloid 1 (TRPV1), sequence (Q8NER1 whole entry): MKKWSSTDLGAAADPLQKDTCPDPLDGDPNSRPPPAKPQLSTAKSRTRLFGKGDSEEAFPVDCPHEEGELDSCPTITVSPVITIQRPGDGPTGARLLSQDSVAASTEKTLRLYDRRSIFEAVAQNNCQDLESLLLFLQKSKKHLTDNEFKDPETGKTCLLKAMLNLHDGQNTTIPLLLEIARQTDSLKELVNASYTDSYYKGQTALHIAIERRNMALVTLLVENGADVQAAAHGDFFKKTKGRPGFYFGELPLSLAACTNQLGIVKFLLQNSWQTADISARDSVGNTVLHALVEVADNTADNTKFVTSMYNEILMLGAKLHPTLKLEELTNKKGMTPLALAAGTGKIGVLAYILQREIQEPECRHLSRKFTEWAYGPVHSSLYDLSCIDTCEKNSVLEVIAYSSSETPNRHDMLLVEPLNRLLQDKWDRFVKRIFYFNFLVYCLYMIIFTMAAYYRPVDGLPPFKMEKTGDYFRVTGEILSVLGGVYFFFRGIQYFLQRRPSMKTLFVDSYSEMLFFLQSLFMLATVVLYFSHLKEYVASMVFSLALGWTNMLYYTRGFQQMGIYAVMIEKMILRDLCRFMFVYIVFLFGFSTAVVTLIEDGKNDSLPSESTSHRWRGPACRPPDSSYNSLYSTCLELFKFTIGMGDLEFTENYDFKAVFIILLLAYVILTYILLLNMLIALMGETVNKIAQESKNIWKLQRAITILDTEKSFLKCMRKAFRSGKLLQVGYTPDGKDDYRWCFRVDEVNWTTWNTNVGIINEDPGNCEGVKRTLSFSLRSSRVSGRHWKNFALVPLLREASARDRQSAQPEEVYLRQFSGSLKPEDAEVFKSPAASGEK

For `CC(C)=CC(=O)O[C@H]1Cc2cc3ccc(=O)oc3cc2OC1(C)C` [decursin], the IC50 was 690 ± 105 nM.
